The NIST ThermoML archive (doi:10.1021/je8004134)
Numbers after ± are expanded uncertainties.

Experiment: an = ratio of the nth substance listed, in mol/kg
Details: 298.15 K, 101 kPa, Liquid; for speed of sound: Sing-around technique in a fixed-path interferometer; for mass density: Vibrating tube method

[Cl-].[Cl-].[Zn+2] [zinc chloride] + C[S+](C)[O-]
Details	mass density [kg/m3]	speed of sound [m/s]
a1 = 0.05319	1100.61 ± 0.32	1484.1 ± 1.2
a1 = 0.0712	1102.49 ± 0.32	1484.2 ± 1.2
a1 = 0.0892	1104.34 ± 0.33	1484.5 ± 1.2
a1 = 0.107	1106.22 ± 0.33	1484.8 ± 1.2
a1 = 0.1251	1108.12 ± 0.33	1485.2 ± 1.2
a1 = 0.1517	1110.9 ± 0.33	1485.9 ± 1.2
a1 = 0.1776	1113.65 ± 0.33	1486.6 ± 1.2

CC(=O)N(C)C [N,N-dimethylethanamide] + [Cu+2].[O-][Cl+3]([O-])([O-])[O-].[O-][Cl+3]([O-])([O-])[O-]
a2 = 0
Details	mass density [kg/m3]	speed of sound [m/s]
–	936.11 ± 0.32	1455.4 ± 1.2

[Ni+2].[O-][Cl+3]([O-])([O-])[O-].[O-][Cl+3]([O-])([O-])[O-] [nickel perchlorate] + CC(=O)N(C)C
Details	mass density [kg/m3]	speed of sound [m/s]
a1 = 0.03452	943.693 ± 0.32	1460.5 ± 1.2
a1 = 0.06515	950.677 ± 0.32	1464.3 ± 1.2
a1 = 0.096	957.709 ± 0.32	1468.2 ± 1.2
a1 = 0.1279	964.983 ± 0.32	1472.3 ± 1.2
a1 = 0.1604	972.395 ± 0.31	1476.5 ± 1.2
a1 = 0.1898	979.089 ± 0.31	1480.4 ± 1.2
a1 = 0.2198	985.93 ± 0.31	1484.6 ± 1.2
a1 = 0.2504	992.904 ± 0.31	1489 ± 1.2

[Mn+2].[O-][Cl+3]([O-])([O-])[O-].[O-][Cl+3]([O-])([O-])[O-] [manganese (II) perchlorate] + CC(=O)N(C)C
Details	mass density [kg/m3]	speed of sound [m/s]
a1 = 0.03006	942.406 ± 0.31	1459.5 ± 1.2
a1 = 0.05909	948.611 ± 0.31	1463.1 ± 1.2
a1 = 0.08863	954.924 ± 0.31	1466.8 ± 1.2
a1 = 0.1177	961.136 ± 0.31	1470.4 ± 1.2
a1 = 0.1466	967.302 ± 0.3	1474.1 ± 1.2
a1 = 0.1747	973.327 ± 0.3	1477.6 ± 1.2
a1 = 0.2018	979.1 ± 0.3	1481.2 ± 1.2
a1 = 0.2287	984.866 ± 0.3	1485 ± 1.2

C[S+](C)[O-] [dimethyl sulfoxide] + [Mn+2].[O-][Cl+3]([O-])([O-])[O-].[O-][Cl+3]([O-])([O-])[O-]
a2 = 0
Details	mass density [kg/m3]	speed of sound [m/s]
–	1095.19 ± 0.37	1484.1 ± 1.2

[Mn+2].[O-][Cl+3]([O-])([O-])[O-].[O-][Cl+3]([O-])([O-])[O-] [manganese (II) perchlorate] + C[S+](C)[O-]
Details	mass density [kg/m3]	speed of sound [m/s]
a1 = 0.0211	1099.48 ± 0.37	1485.3 ± 1.2
a1 = 0.02843	1100.98 ± 0.37	1485.8 ± 1.2
a1 = 0.037	1102.73 ± 0.37	1486.2 ± 1.2
a1 = 0.04758	1104.9 ± 0.37	1486.8 ± 1.2
a1 = 0.05763	1106.97 ± 0.37	1487.5 ± 1.2
a1 = 0.07358	1110.26 ± 0.37	1488.3 ± 1.2
a1 = 0.09456	1114.62 ± 0.37	1489.7 ± 1.2
a1 = 0.1139	1118.65 ± 0.38	1490.8 ± 1.2
a1 = 0.1337	1122.82 ± 0.38	1492 ± 1.2
a1 = 0.1566	1127.65 ± 0.38	1493.4 ± 1.2
a1 = 0.1754	1131.67 ± 0.38	1494.6 ± 1.2

[Cl][Cu][Cl] [copper chloride] + C[S+](C)[O-]
Details	mass density [kg/m3]	speed of sound [m/s]
a1 = 0.04097	1100.01 ± 0.33	1485.3 ± 1.2
a1 = 0.05136	1101.21 ± 0.33	1485.5 ± 1.2
a1 = 0.0616	1102.39 ± 0.33	1485.8 ± 1.2
a1 = 0.07134	1103.53 ± 0.33	1486 ± 1.2
a1 = 0.08195	1104.77 ± 0.33	1486.2 ± 1.2
a1 = 0.09202	1105.94 ± 0.33	1486.4 ± 1.2
a1 = 0.1022	1107.13 ± 0.33	1486.6 ± 1.2

C[S+](C)[O-] [dimethyl sulfoxide] + [Cl-].[Cl-].[Zn+2]
a2 = 0
Details	mass density [kg/m3]	speed of sound [m/s]
–	1095.2 ± 0.32	1484.1 ± 1.2

CC(=O)N(C)C [N,N-dimethylethanamide] + [Cl][Ni][Cl]
a2 = 0
Details	mass density [kg/m3]	speed of sound [m/s]
–	936.23 ± 0.25	1455.4 ± 1.2

[Cl][Co][Cl] [cobalt chloride] + CC(=O)N(C)C
Details	mass density [kg/m3]	speed of sound [m/s]
a1 = 0.02558	938.7 ± 0.25	1456.5 ± 1.2
a1 = 0.05173	941.28 ± 0.25	1457.3 ± 1.2
a1 = 0.07676	943.75 ± 0.25	1458 ± 1.2
a1 = 0.1024	946.279 ± 0.24	1458.9 ± 1.2
a1 = 0.1289	948.892 ± 0.24	1459.8 ± 1.2
a1 = 0.1539	951.355 ± 0.24	1460.7 ± 1.2
a1 = 0.181	954.035 ± 0.24	1461.6 ± 1.2
a1 = 0.2056	956.46 ± 0.24	1462.6 ± 1.2

C[S+](C)[O-] [dimethyl sulfoxide] + [Ni+2].[O-][Cl+3]([O-])([O-])[O-].[O-][Cl+3]([O-])([O-])[O-]
a2 = 0
Details	mass density [kg/m3]	speed of sound [m/s]
–	1095.19 ± 0.37	1484.1 ± 1.2

[Cl][Co][Cl] [cobalt chloride] + C[S+](C)[O-]
Details	mass density [kg/m3]	speed of sound [m/s]
a1 = 0.04252	1099.76 ± 0.33	1485.1 ± 1.2
a1 = 0.06132	1101.77 ± 0.33	1485.6 ± 1.2
a1 = 0.08074	1103.85 ± 0.33	1486.2 ± 1.2
a1 = 0.1018	1106.1 ± 0.33	1486.7 ± 1.2
a1 = 0.122	1108.29 ± 0.33	1487.4 ± 1.2
a1 = 0.1423	1110.49 ± 0.33	1488.2 ± 1.2
a1 = 0.1621	1112.63 ± 0.33	1488.8 ± 1.2
a1 = 0.1818	1114.77 ± 0.33	1489.5 ± 1.2
a1 = 0.202	1116.97 ± 0.33	1490 ± 1.2

[Cl][Ni][Cl] [nickel chloride (NiCl2)] + C[S+](C)[O-]
Details	mass density [kg/m3]	speed of sound [m/s]
a1 = 0.01103	1096.81 ± 0.34	1485.1 ± 1.2
a1 = 0.01653	1097.61 ± 0.34	1485.5 ± 1.2
a1 = 0.02222	1098.43 ± 0.34	1486 ± 1.2
a1 = 0.02764	1099.21 ± 0.34	1486.3 ± 1.2
a1 = 0.03328	1100.03 ± 0.34	1486.7 ± 1.2
a1 = 0.03812	1100.72 ± 0.34	1487.1 ± 1.2
a1 = 0.04374	1101.53 ± 0.34	1487.4 ± 1.2
a1 = 0.04953	1102.36 ± 0.34	1487.8 ± 1.2
a1 = 0.05501	1103.13 ± 0.34	1488.2 ± 1.2

C[S+](C)[O-] [dimethyl sulfoxide] + [Cl][Cu][Cl]
a2 = 0
Details	mass density [kg/m3]	speed of sound [m/s]
–	1095.2 ± 0.33	1484.1 ± 1.2

C[S+](C)[O-] [dimethyl sulfoxide] + [Cl][Co][Cl]
a2 = 0
Details	mass density [kg/m3]	speed of sound [m/s]
–	1095.19 ± 0.32	1484.1 ± 1.2

C[S+](C)[O-] [dimethyl sulfoxide] + [Cu+2].[O-][Cl+3]([O-])([O-])[O-].[O-][Cl+3]([O-])([O-])[O-]
a2 = 0
Details	mass density [kg/m3]	speed of sound [m/s]
–	1095.2 ± 0.38	1484.1 ± 1.2

CC(=O)N(C)C [N,N-dimethylethanamide] + [O-][Cl+3]([O-])([O-])[O-].[O-][Cl+3]([O-])([O-])[O-].[Zn+2]
a2 = 0
Details	mass density [kg/m3]	speed of sound [m/s]
–	936.15 ± 0.31	1455.4 ± 1.2

CC(=O)N(C)C [N,N-dimethylethanamide] + [Ni+2].[O-][Cl+3]([O-])([O-])[O-].[O-][Cl+3]([O-])([O-])[O-]
a2 = 0
Details	mass density [kg/m3]	speed of sound [m/s]
–	936.168 ± 0.32	1455.4 ± 1.2
